Results on one compound are retold here after patent US20240148701A1, “WOULD HEALING METHODS” (The University of Sydney, priority 2021, published 2024).

A short description of test [1]: Glucose tolerance testing in type 2 diabetes model. The format is in vivo, mouse. On the procedure: Glucose tolerance testing was conducted in fasted type 2 diabetic mice. Rodent chow was removed overnight and testing was conducted in the morning. After baseline glucose testing mice were injected intraperitoneal with sterile D-glucose (2 g/kg). Repeated blood glucose sampling was conducted every 15-30 minutes for 2 hours.

For test [2], the system named is HUVECs. The test can be described thus: Cell migration by scratch assay in HUVECs (CL 316,243). Format: cell-based, human.
The test system of test [3] is Nox 2. The test can be described thus: Immunoblot of hind limb Nox 2 expression. Format: in vivo, mouse. The note with it: ischemic limb, non-diabetic mice, n=4, P>0.05. On the procedure: Hind limb tissue including the gastrocnemius and adductor muscles were isolated and collected at 14 or 28 days. Tissues were separated and implanted in OCT or placed in cryovials and snap-frozen in liquid nitrogen or were fixed in 10% formalin for 24-hours and then moved to 70% ethanol for storage.
Gastrocnemius samples were stored at −80° C. and then mechanically homogenized in ice-cold lysis buffer containing 150 mmol/L NaCl, 200 mmol/L Tris-HCl (pH 8.0), 1% Triton X-100, 0.5% deoxycholic acid, 0.1% SDS, N-ethylmaleimide (25 mM) and protease inhibitors (cOmplete™ EDTA-free, Roche Diagnostics). 30 μg of protein lysate was denatured and run under reducing conditions on SDS-PAGE (Bolt™ pre-cast gels and reagents, Thermofisher Scientific, Australia) and transferred onto Immobilon polyvinylidene fluoride membrane (Merck Millipore, Australia). […] Membranes were detected using an Odyssey imaging platform (Licor, USA).
For orientation: In western blotting, separated proteins are transferred to a membrane and probed.

For test [4], the system named is endothelial colony forming cells (ECFC). Description: Tubule formation in patient-derived endothelial colony forming cells. The format is cell-based, human. The procedure:
Human umbilical vein endothelial cells (HUVECs; Lonza C2519AS, pooled source, Australia) were grown using standard cell culture conditions in endothelial cell growth medium (EGM Plus®, containing 2% fetal bovine serum, Lonza, Australia). All cells were regularly confirmed to be mycoplasma negative. Two different pooled source cell lines were used in experiments and all were used within passages 2-4. Human adult dermal microvascular endothelial cells were also obtained from Lonza (CC-2543, Lonza Australia) and cultured as above but using endothelial growth medium 2-MV bulletkit. Endothelial colony forming cells (ECFCs) were derived from the peripheral blood of participants in the BioHEART study. This registered study (ACTRN12618001322224) complies with the Declaration of Helsinki and the study protocol and design has been approved by the Northern Sydney Local Health District Human Research Ethics Committee (HREC/17/HAWKE/343). […]
Once they were ˜70% confluent, cells were re-suspended in diluted EGM Plus® (1:3) and plated on reduced-growth factor extracellular matrix (15 mg/ml, Cultrex, Trevigen, USA) at a density of 1.5×10^4 cells/cm^2. […] Cells were incubated in an EVOS FL Auto Imaging system for 16 hours and tubule formation recorded every hour. Optimal tube formation occurred at the 8-hour timepoint; tubule number at this point was quantified manually using NIH Image J software. […]

For `C[C@H](Cc1ccc2c(c1)OC(C(=O)[O-])(C(=O)[O-])O2)NC[C@H](O)c1cccc(Cl)c1.[Na+].[Na+]` [CL 316,243], the “fasted blood glucose levels” value in test [1] (fasted for glucose tolerance tests, did not reach significant difference) is reported as “appeared lower”. Moreover, the glucose tolerance entry was “even improved” in test [1] (non-hyperglycemic, non-diabetic controls) and “improved” in test [1] (type 2 diabetic mice). Besides, in test [2] (by 24 hours at the higher concentrations), the “closure of denuded zone” value is above 90%. In test [2] (scratch assay over 24 hours, 1-1000 ng/ml, vs vehicle control), the “migration of HUVECs into the denuded zone” value is reported as “significantly increased migration”. The “Nox 2 hind limb protein expression” value in test [3] worked out at 1.04±0.46 fold change from vehicle. Besides, in test [4] (ECFCs from patients with significant coronary artery disease, 100 ng/ml), the “angiogenesis (tubule formation) in ECFCs” value is reported as “effectively stimulate angiogenesis”. Besides, the “angiogenesis in ECFCs” value in test [4] (cells from relatively healthy participants) is given as “did not occur”.
